Test results published in paper PMC11851776, “Structural Basis for the Catalysis and Substrate Specificity of a LarA Racemase with a Broad Substrate Spectrum” (ACS Catalysis, 2025).

Experiments:
[1] = molecular target: T1, LarAIp (Isosphaera pallida, UniProt E8QWZ4); assay: racemization assay, D-lactate formed measured by D/L-lactate kit; format: biochemical; settings: turnover only; conversion to D-lactate also seen in crystal
T1 construct: gene Isop_3476; full length, C-terminal Strep-II tag, co-expressed with LarB, LarC and LarE in Lactococcus lactis NZ3900 (structures); apoprotein from E. coli (pBADHisA) plus in vitro-synthesized NPN for substrate assays; 47403 Da after loss of Met1; monomer

[2] = molecular target: T1, LarAIp; assay: X-ray crystal structure, […] Å; format: binding; settings: ligand exchange with ~3 mM D/L-2HB at 55 °C 15 min, then 4 °C; active site
[3] = molecular target: T1, LarAIp; assay: X-ray crystal structure, […] Å; format: binding; settings: naturally bound in enzyme as purified; active site with NPN tethered to Lys183
[4] = molecular target: T1, LarAIp; assay: X-ray crystal structure, […] Å; format: binding; settings: ligand exchange at ~3 mM, 55 °C 15 min, then 4 °C; active site
[5] = molecular target: T1, LarAIp; assay: competitive-substrate racemization assay, capillary electrophoresis; format: biochemical; settings: turnover only (relative kcat/KM); 100 mM Tris-HCl pH 8.0, 30 °C, 1 μM NPN

T1 sequence (E8QWZ4 entry or part of it): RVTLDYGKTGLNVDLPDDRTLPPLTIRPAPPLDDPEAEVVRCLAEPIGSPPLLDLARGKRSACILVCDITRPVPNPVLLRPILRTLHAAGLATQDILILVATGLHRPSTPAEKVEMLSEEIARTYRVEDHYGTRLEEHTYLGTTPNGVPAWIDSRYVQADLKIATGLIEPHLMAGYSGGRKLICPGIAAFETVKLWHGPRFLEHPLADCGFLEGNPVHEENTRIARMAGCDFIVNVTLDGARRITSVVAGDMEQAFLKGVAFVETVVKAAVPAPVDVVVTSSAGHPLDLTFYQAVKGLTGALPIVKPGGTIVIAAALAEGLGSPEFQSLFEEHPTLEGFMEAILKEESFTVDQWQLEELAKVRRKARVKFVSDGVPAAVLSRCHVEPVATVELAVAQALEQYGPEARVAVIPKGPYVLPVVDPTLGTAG

C[C@H](O)C(=O)O [L-lactate]
racemization assay, D-lactate formed measured by D/L-lactate kit [1]: confirmed the conversion of three L-α-hydroxyacids into the corresponding D-enantiomers

CC[C@@H](O)C(=O)O [D-2HB]
X-ray crystal structure, 1.38 Å [2]: 9EID (LarAIp with bound D-2HB)

C[C@@H](O)C(=O)O [D-lactate]
X-ray crystal structure, 1.74 Å [3]: 9EIA (LarAIp with bound D-lactate as purified)

CC(C)[C@@H](O)C(=O)O [D-2HIV]
X-ray crystal structure, 1.65 Å [4]: 9EIF (LarAIp with bound D-2HIV)

O=C(O)[C@@H](O)CO [L-glycerate]
competitive-substrate racemization assay, capillary electrophoresis [5]: highest kcat/KM values for L-lactate and 2-hydroxybutyrate (2HB), followed by L-glycerate
